In US20110166123A1, “NOVEL COMPOSITIONS AND METHODS OF USE” (priority 2008, published 2011):

Each compound was assayed on human immunodeficiency virus type 1 (HIV-1) (assay: microbe, parasite or virus in culture). Settings: Human immunodeficiency virus 1, HeLa, 48 h, HIV-1 luciferase reporter, HeLa cells, 48 hours after infection.
Format: cell-based

`C[C@H](CO)n1cc(C(=O)O)c(=O)c2cc(Cc3cccc(Cl)c3F)ncc21` [Example 5K] was tested. Which EC50 did it give?
The EC50 was > 100 nM.

How did the EC50 turn out when `COc1nc2c(cc1NCc1c(F)ccc(F)c1F)c(=O)c(C(=O)O)cn2[C@H](CO)C(C)C` [Example 20GG, (S)-1-(1-hydroxy-3-methylbutan-2-yl)-7-methoxy-4-oxo-6-(2,3,6-trifluorobenzylamino)-1,4-dihydro-1,8-naphthyridine-3-carboxylic acid] was run?
Its EC50 is 10 to 100 nM.

Which EC50 does the source give for `O=C(O)c1cn(CCO)c2ncc(Cc3cccc(Cl)c3Cl)cc2c1=O` [Example 4E] here?
Its EC50 is > 100 nM.

`COc1nc2c(cc1NCc1ccc(F)c(F)c1F)c(=O)c(C(=O)O)cn2[C@H](CO)C(C)C` [Example 20EE, (S)-1-(1-hydroxy-3-methylbutan-2-yl)-7-methoxy-4-oxo-6-(2,3,4-trifluorobenzylamino)-1,4-dihydro-1,8-naphthyridine-3-carboxylic acid] was tested. Which EC50 did it give?
The EC50 was > 100 nM.

`CC(C)(C)[C@@H](CO)n1cc(C(=O)O)c(=O)c2cc(Cc3cccc(Cl)c3F)c(NCCCn3ccnc3)nc21` [Example 2GG] was tested. Which EC50 did it give?
The EC50 was 10 to 100 nM.

For `COc1cc2c(cc1CNc1ccc(F)cc1)c(=O)c(C(=O)O)cn2[C@H](CO)C(C)C` [Example 13A, (S)-6-((4-fluorophenylamino)methyl)-1-(1-hydroxy-3-methylbutan-2-yl)-7-methoxy-4-oxo-1,4-dihydroquinoline-3-carboxylic acid], which EC50 is on record?
Its EC50 is > 100 nM.

`COc1nc2c(cc1N(C)Cc1ccccc1F)c(=O)c(C(=O)O)cn2[C@H](CO)C(C)C` [Example 20U, (S)-6-((2-fluorobenzyl)(methyl)amino)-1-(1-hydroxy-3-methylbutan-2-yl)-7-methoxy-4-oxo-1,4-dihydro-1,8-naphthyridine-3-carboxylic acid] was tested. Which EC50 did it give?
Its EC50 is > 100 nM.

With `COc1nc2c(cc1Cc1cccc(Cl)c1F)c(=O)c(C(=O)O)cn2[C@H](CO)C1CCCCC1` [Example 1O] as the compound, how does the EC50 read?
The EC50 was < 10 nM.

Which EC50 does the source give for `COc1nc2c(cc1CNC1CCCc3ccccc31)c(=O)c(C(=O)O)cn2[C@H](CO)C(C)C` (stereo partly drawn) [Example 12F] here?
Its EC50 is > 100 nM.

`CCCn1cc(C(=O)OC(=O)c2ccccc2)c(=O)c2c(N)nc(SC)nc21` [Example 7A] was tested. Which EC50 did it give?
The EC50 was > 100 nM.

With `CN(C)CCOc1nc2c(cc1Cc1cccc(Cl)c1F)c(=O)c(C(=O)O)cn2[C@H](CO)C(C)(C)C` [Example 2K] as the compound, how does the EC50 read?
The EC50 was 10 to 100 nM.

How did the EC50 turn out when `CC(C)[C@@H](CO)n1cc(C(=O)O)c(=O)c2nc(Cc3ccc(F)c(F)c3)ccc21` [Example 8B, 6-(3,4-Difluoro-benzyl)-1-((S)-1-hydroxymethyl-2-methyl-propyl)-4-oxo-1,4-dihydro-[1.5]naphthyridine-3-carboxylic acid] was run?
Its EC50 is > 100 nM.

`COc1nc2c(cc1NCc1cccc(C(F)(F)F)c1)c(=O)c(C(=O)O)cn2[C@H](CO)C(C)C` [Example 20X, (S)-1-(1-hydroxy-3-methylbutan-2-yl)-7-methoxy-4-oxo-6-(3-(trifluoromethyl)benzylamino)-1,4-dihydro-1,8-naphthyridine-3-carboxylic acid] was tested. Which EC50 did it give?
The EC50 was > 100 nM.

How did the EC50 turn out when `COc1cc2c(cc1OCc1ccccc1C(F)(F)F)c(=O)c(C(=O)O)cn2[C@H](CO)C(C)(C)C` [Example 29C, (S)-1-(1-hydroxy-3,3-dimethylbutan-2-yl)-7-methoxy-4-oxo-6-(2-(trifluoromethyl)benzyloxy)-1,4-dihydroquinoline-3-carboxylic acid] was run?
The EC50 was > 100 nM.

With `CC(C)(C)[C@@H](CO)n1cc(C(=O)O)c(=O)c2cc(Cc3cccc(Cl)c3F)c(CCCO)nc21` [Example 3C, 6-(3-Chloro-2-fluoro-benzyl)-1-((S)-1-hydroxymethyl-2,2-dimethyl-propyl)-7-(3-hydroxy-propyl)-4-oxo-1,4-dihydro-1,8-naphthyridine-3-carboxylic acid] as the compound, how does the EC50 read?
The EC50 was < 10 nM.

How did the EC50 turn out when `COCCCOc1nc2c(cc1Cc1cccc(Cl)c1F)c(=O)c(C(=O)O)cn2[C@H](CO)C(C)(C)C` [Example 2I] was run?
The EC50 was 10 to 100 nM.

`COc1nc2c(cc1Nc1ccc(Cl)c(F)c1)c(=O)c(C(=O)O)cn2[C@H](CO)C(C)C` [Example 20PP, (S)-6-(4-chloro-3-fluorophenylamino)-1-(1-hydroxy-3-methylbutan-2-yl)-7-methoxy-4-oxo-1,4-dihydro-1,8-naphthyridine-3-carboxylic acid] was tested. Which EC50 did it give?
The EC50 was > 100 nM.

Which EC50 does the source give for `COc1nc2c(cc1NCCc1cccc(Cl)c1)c(=O)c(C(=O)O)cn2[C@H](CO)C(C)C` [Example 20G, (S)-6-(3-chlorophenethylamino)-1-(1-hydroxy-3-methylbutan-2-yl)-7-methoxy-4-oxo-1,4-dihydro-1,8-naphthyridine-3-carboxylic acid] here?
Its EC50 is > 100 nM.

`COc1nc2c(cc1NCc1ccccc1Cl)c(=O)c(C(=O)O)cn2[C@H](CO)C(C)C` [Example 20M, (S)-6-(2-chlorobenzylamino)-1-(1-hydroxy-3-methylbutan-2-yl)-7-methoxy-4-oxo-1,4-dihydro-1,8-naphthyridine-3-carboxylic acid] was tested. Which EC50 did it give?
The EC50 was > 100 nM.

How did the EC50 turn out when `CC(C)(C)[C@@H](CO)n1cc(C(=O)O)c(=O)c2cc(Cc3cccc(Cl)c3F)c(O)nc21` [Example 2B, (S)-6-(3-chloro-2-fluorobenzyl)-7-hydroxy-1-(1-hydroxy-3,3-dimethylbutan-2-yl)-4-oxo-1,4-dihydro-1,8-naphthyridine-3-carboxylic acid] was run?
Its EC50 is 10 to 100 nM.

For `COc1nc2c(cc1NCc1ccc(C)cc1)c(=O)c(C(=O)O)cn2[C@H](CO)C(C)C` [Example 20A, (S)-1-(1-hydroxy-3-methylbutan-2-yl)-7-methoxy-6-(4-methylbenzylamino)-4-oxo-1,4-dihydro-1,8-naphthyridine-3-carboxylic acid], which EC50 is on record?
The EC50 was > 100 nM.

How did the EC50 turn out when `COc1cc2c(cc1NCc1ccc(F)cc1)c(=O)c(C(=O)O)cn2[C@H](CO)C(C)C` [Example 21A, (S)-6-(4-Fluorobenzylamino)-1-(1-hydroxy-3-methylbutan-2-yl)-7-methoxy-4-oxo-1,4-dihydroquinoline-3-carboxylic acid] was run?
Its EC50 is < 10 nM.

How did the EC50 turn out when `COc1nc2c(cc1NCc1cc(F)cc(F)c1F)c(=O)c(C(=O)O)cn2[C@H](CO)C(C)C` [Example 20FF, (S)-1-(1-hydroxy-3-methylbutan-2-yl)-7-methoxy-4-oxo-6-(2,3,5-trifluorobenzylamino)-1,4-dihydro-1,8-naphthyridine-3-carboxylic acid] was run?
The EC50 was > 100 nM.

`CC(C)[C@H]1COc2nc(Cc3cccc(Cl)c3F)cc3c(=O)c(C(=O)O)cn1c23` [Example 5E, (S)-8-(3-chloro-2-fluoro-benzyl)-3-isopropyl-6-oxo-2,3-dihydro-6H-1-oxa-3a,9-diaza-phenalene-5-carboxylic acid] was tested. Which EC50 did it give?
Its EC50 is > 100 nM.

With `CC(C)[C@@H](CO)n1cc(C(=O)O)c(=O)c2cc(Cc3cccc(Cl)c3F)cnc21` [Example 4A, (S)-6-(3-chloro-2-fluorobenzyl)-1-(1-hydroxy-3-methylbutan-2-yl)-4-oxo-1,4-dihydro-1,8-naphthyridine-3-carboxylic acid] as the compound, how does the EC50 read?
Its EC50 is 10 to 100 nM.

With `COc1nc2c(cc1NCc1ccc(F)c(Cl)c1)c(=O)c(C(=O)O)cn2[C@H](CO)C(C)C` [Example 20F, (S)-6-(3-chloro-4-fluorobenzylamino)-1-(1-hydroxy-3-methylbutan-2-yl)-7-methoxy-4-oxo-1,4-dihydro-1,8-naphthyridine-3-carboxylic acid] as the compound, how does the EC50 read?
Its EC50 is > 100 nM.

`CC(C)[C@@H](CO)n1cc(C(=O)O)c(=O)c2cc(NCc3ccc(F)cc3)c(N3CCOCC3)nc21` [Example 24A, (S)-6-(4-fluorobenzylamino)-1-(1-hydroxy-3-methylbutan-2-yl)-7-morpholino-4-oxo-1,4-dihydro-1,8-naphthyridine-3-carboxylic acid] was tested. Which EC50 did it give?
The EC50 was > 100 nM.
